# Test results reported in patent publication US7973219B2, “Method for producing transgenic plants resistant to weed control compounds which disrupt the porphyrin pathways of plants” (Sumitomo Chemical Company, Limited, priority 1998, dated 2011).
# Key:
# [1] = test system: E. coli BT3/pACYCSP+pTVCRP strain; test: Growth of E. coli BT3/pACYCSP+pTVCRP (variant Chlamydomonas reinhardtii PPO) with herbicidal compound; assay type: cell-based, Escherichia coli; details: 18 hours culture, Table 9
# From the text: (§1) According to the description of Gibson, L. C. D. et al., Proc. Natl. Acad. Sci. USA, 92; p 1941 (1995), the DNA fragment containing bchH gene prepared in Example 1 was digested with the restriction enzymes NdeI and BglII. The resultant DNA fragment was inserted between NdeI restriction site and BamHI restriction site of expression vector pET11a (manufactured by Stratagene) to obtain plasmid pETBCH (FIG. 1). This plasmid pETBCH was introduced into E. coli BL21(DE3) strain competent cells (manufactured by Stratagene) according to the manual attached to the competent cells to obtain E. coli BL21(DE3)/pETBCH strain. The strain was inoculated into 1.5 ml LB liquid culture medium (1% tryptone, 0.5% yeast extract, 0.5% NaCl) containing 100 μg/ml ampicillin in a tube (14×10 mm), and the tube was covered with aluminum foil (hereinafter referred to as dark conditions), cultured with shaking at 37° C. under light of fluorescent lamp (about 8000 lux). When the absorbance at 600 nm of the liquid culture medium became about 0.6, isopropyl β-D-thiogalactopyranoside (IPTG) was added to the liquid culture medium so that the final concentration was 0.4 mM, and the culture was continued for about additional 20 hours. […] In contrast to this, when E. coli BL21(DE3)/pETBCH strain was cultured according to the same manner (with IPTG) except that the tube was not covered with aluminum foil (hereinafter referred to as light conditions), E. coli grew and turned red as above.
# Plasmids pTVCRP and pTV118N prepared in Example 16 were introduced into E. coli BT3/pACYCSP strain prepared in Example 3 respectively according to the method described in Hanahan, D. J., Mol. Biol., 166; p 557 (1983). E. coli BT3/pACYCSP+pTVCRP strain bearing plasmids pACYCSP and pTVCRP, and E. coli BT3/pACYCSP+pTV118N strain bearing plasmids pACYCSP and pTV118N were obtained by culturing the above strains in YPT medium containing 100 μg/ml ampicillin, 15 μg/ml chloramphenicol and 10 μg/ml kanamycin.
# (§2) These E. coli strains were inoculated into YPT medium containing 10 or 1 ppm of the PPO inhibitory-type herbicidal compound represented by Structure 8, 100 μg/ml ampicillin. 15 μg/ml chloramphenicol, 10 μg/ml kanamycin, 10 μg/ml hemin and 50 μg/ml aminolevulinic acid, cultured under dark conditions or light conditions in the same manner as in Example 2. Then, 18 hours after initiation of culture, the absorbance of liquid culture medium was measured at 600 nm. By taking the absorbance of the medium containing no herbicidal compound as 1, the relative value of the absorbance of the medium containing the herbicidal compound was calculated.
# [2] = test system: E. coli BT3/pACYCSP+pTVHVF1 strain; test: Growth of E. coli BT3/pACYCSP+pTVHVF1 (variant barley ferrochelatase) with herbicidal compound; assay type: cell-based, Escherichia coli; details: 18 hours culture, Table 11
# From the text: as §1
# A plasmid bearing barley ferrochelatase gene was prepared by the method described in Miyamoto. K. et al. Plant Physiol. 105; p 769 (1994). The resultant plasmid was digested with restriction enzymes NspI and EcoRI to obtain the DNA fragment containing the gene encoding barley ferrochelatase whose signal sequence had been deleted (hereinafter referred to as the variant barley ferrochelatase). This DNA fragment was inserted between SphI restriction site and EcoRI restriction site of plasmid pTV119N (manufactured by Takara Shuzo Co., Ltd.) to construct plasmid pTVHVF1 (FIG. 12). […]
# as §2, with “μg/ml ampicillin,” for “μg/ml ampicillin.”, “conditions according to” for “conditions in”, “medium without the” for “medium containing no”
smiles,measurement,setting,value
C#CCOc1cc(N2C(=O)C3=C(CCCC3)C2=O)c(F)cc1Cl [Structure 8],Relative absorbance,"[1]; in the dark, 1 ppm",0.82
same,Relative absorbance,"[1]; in the dark, 10 ppm",0.81
same,Relative absorbance,"[1]; in the light, 1 ppm",0.42
same,Relative absorbance,"[1]; in the light, 10 ppm",0.23
same,Relative absorbance,"[2]; in the dark, 1 ppm",0.96
same,Relative absorbance,"[2]; in the dark, 10 ppm",0.94
same,Relative absorbance,"[2]; in the light, 1 ppm",0.94
same,Relative absorbance,"[2]; in the light, 10 ppm",0.39
